Assay results from publication PMC5324278, “Novel synthetic analogues of avian β-defensin-12: the role of charge, hydrophobicity, and disulfide bridges in biological functions” (BMC Microbiology, 2017).
Bridge positions count the residues as written; N and C are the ends. Ends that are not written are not given here.

Columns and labels:
[1] = tested on: S. Typhimurium (ATCC 14028); type: cell-based, Salmonella enteric serovar Typhimurium; conditions: triplicate; for MIC-ls S. Typhimurium (ATCC 14028): 100× diluted Muller Hinton II broth, 5 mM NaCl; for MIC-ls S. Typhimurium (ATCC 14028) / MIC S. Typhimurium (ATCC 14028): 5 × 10^5 CFU/ml, 37 °C, 24 h; for MIC S. Typhimurium (ATCC 14028): CLSI, standard Muller Hinton II broth; for MBC-ls S. Typhimurium (ATCC 14028): sub-culture of clear MIC-ls wells on LB agar, lowest concentration inhibiting more than 99% of growth
Experimental: (§1) The minimum inhibitory concentrations (MIC) of AvBDs were determined according to the guidelines of the Clinical and Laboratory Standards Institute (CLSI). The Muller Hinton II broth used in standard MIC assays contained 20–25 mg/L of calcium and 10–12.5 mg/L of magnesium. Modified MICs of AvBDs were also determined under a low-salt and low-nutrient condition by using 100× diluted Muller Hinton II broth containing 0.2 mg/L of calcium, 0.1 mg/L magnesium and 5 mM (292 mg/L) NaCl. MIC obtained under the low-salt and low-nutrient condition was referred to as MIC-ls. AvBD peptides were two-fold serially diluted (2 to 256 μg/ml) in a 96-well microtiter plate. An equal volume (μl) of bacterial suspension was added to each well of the plate. The final bacterial concentration in the wells was 5 × 10^5 CFU/ml. […] To complement MIC-ls assays, the minimum bactericidal concentrations (MBC) were evaluated by sub-culturing the contents of the first two clear wells obtained in the MIC-ls assay onto LB agar plates. All assays were conducted in triplicate. The lowest peptide concentration inhibiting more than 99% of bacterial growth was defined as MBC-ls. AvBD analogues were regarded as bactericidal if the MBC was no more than four times the MIC [29].

[2] = tested on: E. coli (ATCC 25922); type: cell-based, Escherichia coli; conditions: triplicate; for MIC-ls E. coli (ATCC 25922): 100× diluted Muller Hinton II broth, 5 mM NaCl; for MIC-ls E. coli (ATCC 25922) / MIC E. coli (ATCC 25922): 5 × 10^5 CFU/ml, 37 °C, 24 h; for MIC E. coli (ATCC 25922): CLSI, standard Muller Hinton II broth; for MBC-ls E. coli (ATCC 25922): sub-culture of clear MIC-ls wells on LB agar, lowest concentration inhibiting more than 99% of growth
Experimental: as §1

[3] = tested on: P. aeruginosa (ATCC 27853); type: cell-based, Pseudomonas aeruginosa; conditions: triplicate; for MIC-ls P. aeruginosa (ATCC 27853): 100× diluted Muller Hinton II broth, 5 mM NaCl; for MIC-ls P. aeruginosa (ATCC 27853) / MIC P. aeruginosa (ATCC 27853): 5 × 10^5 CFU/ml, 37 °C, 24 h; for MIC P. aeruginosa (ATCC 27853): CLSI, standard Muller Hinton II broth; for MBC-ls P. aeruginosa (ATCC 27853): sub-culture of clear MIC-ls wells on LB agar, lowest concentration inhibiting more than 99% of growth
Experimental: as §1

[4] = tested on: CHO-K1 cells; assay: MTT cell cytotoxicity assay; type: cell-based; conditions: 256 μg/ml; 4, 12, 24 and 48 hours; Student t-test treated vs untreated; n = 3; Figure S1
Experimental: (§2) Chicken macrophage cell lines MQ-NCSU and HD11 were maintained in RPMI-1640 media supplemented with 10% fetal bovine serum (FBS), 2% chicken serum, 100 U/ml penicillin and 100 μg/ml streptomycin (Sigma-Aldrich) at 37 °C in humidified air with 5% CO2. CHO-K1 cells were cultured in the same media without 2% chicken serum. For CCR2-transfected CHO-K1 cells, the medium was supplemented with 500 μg/ml G418 was added (Sigma-Aldrich). Murine immature dendritic cell line JAWSII (ATCC CRL-11904™) was cultured in Alpha minimum essential medium containing 4 mM L-glutamine, 1 mM sodium pyruvate, 5 ng/ml murine Granulocyte macrophage colony-stimulating factor (GM-CSF), 20% FBS, 100 U/ml penicillin and 100 μg/ml streptomycin at 37 °C in humidified air with 5% CO2. The cell cytotoxicity was determined using the MTT (3-(4, 5-dimethylthiazol-2-yl)-2, 5-diphenyltetrazolium bromide metabolic activity assay according to the manufacturer’s instruction (Thermo Fisher Scientific). Briefly, cells (5 × 10^3 cells/well) were seeded in 96-well tissue culture plates, incubated overnight and treated with AvBDs at concentrations of 4, 16, 64 and 256 μg/ml for 4, 12, 24 and 48 h at 37 °C. After treatment, 20 μl of 12 mM MTT solution was added to each well. The plate was incubated for 4 h and read at 540 nm. Viability was expressed as percentage of viable cells relative to the untreated control. The experiments were performed in triplicate.

[5] = tested on: MQ-NCSU cells; assay: MTT cell cytotoxicity assay; type: cell-based, chicken; conditions: 256 μg/ml; 4, 12, 24 and 48 hours; Student t-test treated vs untreated; n = 3; Figure S1
Experimental: as §2

[6] = tested on: HD11 cells; assay: MTT cell cytotoxicity assay; type: cell-based, chicken; conditions: 256 μg/ml; 4, 12, 24 and 48 hours; Student t-test treated vs untreated; n = 3; Figure S1
Experimental: as §2

[7] = tested on: S. aureus (ATCC 29213); type: cell-based, Staphylococcus aureus; conditions: triplicate; for MIC-ls S. aureus (ATCC 29213): 100× diluted Muller Hinton II broth, 5 mM NaCl; for MIC-ls S. aureus (ATCC 29213) / MIC S. aureus (ATCC 29213): 5 × 10^5 CFU/ml, 37 °C, 24 h; for MIC S. aureus (ATCC 29213): CLSI, standard Muller Hinton II broth; for MBC-ls S. aureus (ATCC 29213): sub-culture of clear MIC-ls wells on LB agar, lowest concentration inhibiting more than 99% of growth
Experimental: as §1

[8] = tested on: JAWSII cells; assay: MTT cell cytotoxicity assay; type: cell-based, murine; conditions: 256 μg/ml; 4, 12, 24 and 48 hours; Student t-test treated vs untreated; n = 3; Figure S1
Experimental: as §2, with “The experiments were performed in triplicate.” left out

[9] = tested on: avian and mammalian cell lines; conditions: previous findings; cited from earlier work
Experimental: Data on the highest peptide concentration (256 μg/ml) at various exposure times were presented in Additional file 1: Figure S1. The results were consistent with our previous findings that AvBD-6 and AvBD-12 were non-cytotoxic to avian and mammalian cell lines.

[10] = tested on: Escherichia coli (ATCC 25922); type: cell-based; conditions: peptide 16 μg/ml; 2 h at 37 °C; 100-fold diluted Mueller Hinton II broth with 5 mM NaCl; colony count; n = 3
Experimental: (§3) Escherichia coli (ATCC 25922), Pseudomonas aeruginosa (ATCC 27853), Salmonella enteric serovar Typhimurium (ATCC 14028) and Staphylococcus aureus (ATCC 29213) were used to assess the antimicrobial activity of AvBD analogues. All bacterial strains were grown on Luria-Bertani (LB) agar plates or Trypticase Soy Agar with 5% Sheep Blood (TSA, Thermo Fisher Scientific) plates at 37 °C. Antimicrobial activity was determined by a colony counting assay. In brief, bacteria were resuspended in 100-fold diluted Mueller Hinton II broth with 5 mM NaCl (minimal growth medium) to obtain a final bacterial concentration of 2 × 10^5 CFU/ml. Twenty-five microliters of bacterial suspension and 25 μl of AvBD analogue solution were mixed in the wells of a 96-well polypropylene microtiter plate (Nunc™, Thermo Fisher Scientific). The final peptide concentrations were 2, 4, 8, 16, 32, 64 and 128 μg/ml. The minimal growth medium without AvBD peptide was included as a negative control. The bacterial-peptide mixtures were incubated at 37 °C for 2 h, ten-fold serially diluted and plated on LB agar plates. The numbers of bacteria colonies were enumerated after 16 h of incubation at 37 °C. Antimicrobial activity was expressed as percent of killing using the following formula: (CFUcontrol - CFUtreated) / CFUcontrol × 100%. To assess the resistance of AvBD analogues to sodium chloride (NaCl), antimicrobial assays were carried out in the presence of 5 mM, 50 mM, 100 mM or 150 mM NaCl. All assays were performed in triplicate.

[11] = tested on: Pseudomonas aeruginosa (ATCC 27853); type: cell-based; conditions: peptide 16 μg/ml; 2 h at 37 °C; 100-fold diluted Mueller Hinton II broth with 5 mM NaCl; colony count; n = 3
Experimental: as §3

[12] = tested on: Salmonella enteric serovar Typhimurium (ATCC 14028); type: cell-based; conditions: peptide 16 μg/ml; 2 h at 37 °C; 100-fold diluted Mueller Hinton II broth with 5 mM NaCl; colony count; n = 3
Experimental: as §3

[13] = tested on: Staphylococcus aureus (ATCC 29213); type: cell-based; conditions: peptide 16 μg/ml; 2 h at 37 °C; 100-fold diluted Mueller Hinton II broth with 5 mM NaCl; colony count; n = 3
Experimental: as §3

Sequence	MIC-ls S. Typhimurium (ATCC 14028) [1]	MIC S. Typhimurium (ATCC 14028) [1]	MBC-ls S. Typhimurium (ATCC 14028) [1]	MIC-ls E. coli (ATCC 25922) [2]	MIC E. coli (ATCC 25922) [2]	MBC-ls E. coli (ATCC 25922) [2]	MIC-ls P. aeruginosa (ATCC 27853) [3]	MIC P. aeruginosa (ATCC 27853) [3]	MBC-ls P. aeruginosa (ATCC 27853) [3]	metabolic activity (viability relative to untreated control), CHO-K1 [4]	metabolic activity (viability relative to untreated control), MQ-NCSU [5]	metabolic activity (viability relative to untreated control), HD11 [6]	MIC-ls S. aureus (ATCC 29213) [7]	MIC S. aureus (ATCC 29213) [7]	MBC-ls S. aureus (ATCC 29213) [7]	metabolic activity (viability relative to untreated control), JAWSII [8]	cytotoxicity to avian and mammalian cell lines [9]	further results
SPIHACRYQRGVCIPGPCRWPYYRVGSCGSGLKSCCVRNRWA (disulfide 6-35, 13-28, 18-36) [AvBD-6, avian β-defensin-6, reference compound]	16 µg/mL	>256 µg/mL	64 µg/mL	4 µg/mL	128 µg/mL	16 µg/mL	64 µg/mL	>256 µg/mL	128 µg/mL	No significant difference was found	No significant difference was found	No significant difference was found	256 µg/mL	256 µg/mL	256 µg/mL	No significant difference was found	non-cytotoxic	–
GPDSCNHDRGLCRVGNCNPGEYLAKYCFEPVILCCKPLSPTPTKT (disulfide 5-34, 12-27, 17-35) [AvBD-12, avian β-defensin-12]	128 µg/mL	>256 µg/mL	256 µg/mL	32 µg/mL	256 µg/mL	128 µg/mL	128 µg/mL	>256 µg/mL	>256 µg/mL	No significant difference was found	No significant difference was found	No significant difference was found	256 µg/mL	>256 µg/mL	256 µg/mL	No significant difference was found	non-cytotoxic	percent of killing of E. coli [10]: 74.4%; percent of killing of P. aeruginosa [11]: 35.5%; percent of killing of S. Typhimurium [12]: 47.3%; percent of killing of S. aureus [13]: 52.9%
